Laboratory results as given in US20240148664A1, “LIPID AND COMPOSITION” (SOGO PHARMACEUTICAL CO., LTD., priority 2021, published 2024).

Experiments:
[1] = Measurement of particle size, polydispersity index and zeta potential of lipid nanoparticle (Zetasizer); assay type: physicochemical; conditions: lipid nanoparticle containing siRNA; for Zeta potential (mV): pH 7.4 Tris-HCl; for Particle size (nm) / PDI: main lipid/DPPC/cholesterol=45/10/45; for Particle size (nm): Z-average in ultrapure water; for PDI: ultrapure water
Description: 30 μL of each of the dialyzed lipid nanoparticle-containing solutions obtained by the above operation was measured out, 800 μL of ultrapure water was added to dilute the lipid nanoparticle-containing solution, and the diluted preparation solution was used to measure the particle size (nm) and the polydispersity index (PDI) by using a Zetasizer (manufactured by Malvern Panalytical, Zetasizer nano Ultra). The particle size was evaluated by Z-average in ultrapure water. The zeta potential was measured by using pH 7.4 Tris-HCl as a dilute solution.

[2] = system: HT1080-EGFP (human/fibrosarcoma) cells; test: Evaluation of knockdown effect (GFP assay), Cell experiment 1; assay type: cell-based; conditions: lipid nanoparticle containing siRNA against EGFP; fluorescence intensity with control cells without lipid nanoparticle set at 100
Description: A cell experiment was carried out by using HT1080-EGFP (human/fibrosarcoma) cells in order to evaluate lipid nanoparticles encapsulating an siRNA produced by using the lipids of the Examples and the Comparative Examples. These cells are cells provided with a green fluorescent protein gene (EGFP). The expression of EGFP can be easily confirmed by measuring the fluorescence intensity of a solution in which the cells are lysed, and thus by acting lipid nanoparticles encapsulating an siRNA that suppresses the expression of EGFP and observing any decrease in fluorescence intensity, the performance of the lipid nanoparticles used can be evaluated. Hereinafter, the procedure of the cell experiment will be shown.
(§1) A. Provision of Cells • (i) A liquid medium (DMEM/Ham's F12, FBS+, P/S+) (FBS: fetal bovine serum, P/S: antibiotic) was taken out from a refrigerator and temperature-controlled in an incubator set at 37° C. • (ii) A cryotube containing the cells was taken out from a −80° C. freezer and thawed at once in an incubator set at 37° C. • (iii) A stock solution of the thawed cells was collected in a capped test tube. • (iv) The tube containing the cells was washed with the liquid medium, and the wash was also collected in the test tube. • (v) The tube was subjected to a centrifuge to precipitate the cells. • (vi) The supernatant was aspirated, and the liquid medium was added and gently tapped to disperse the cells. • (vii) A small amount of the cells-dispersed liquid medium was collected, and the number of cells was observed and counted under a microscope. • (viii) The cells were seeded in a 24-well plate such that the number of cells was 2×10^4 cells per well. For the plate for an LDH assay described later, the cells were seeded in a 96-well plate such that the number of cells was 4×10^3 cells per well. • (ix) The 24-well plate or the 96-well plate was placed in an incubator, and the cells were cultured for 24 hours under conditions of 37° C. and 5% CO2.
The produced lipid nanoparticles were introduced into cells. • (i) Fetal bovine serum (FBS) was added to a liquid medium (FBS-, P/S-) temperature-controlled as in (i) of A above, in such a way as to reach 10%. • (ii) A 24-well plate was taken out from an incubator, and the liquid medium supernatant in the 24-well plate was aspirated and washed with phosphate buffered saline (PBS). • (iii) 400 μL of the liquid medium produced in (i) above was added to the washed 24-well plate. In addition, 100 μL of an LNP solution having an adjusted concentration was added. • (iv) The 24-well plate was placed in the incubator, and the cells were cultured (for 24 hours). • (v) After 24 hours, the liquid medium supernatant in the 24-well plate was aspirated, and 500 μL of a liquid medium containing 10% FBS (FBS+/P/S+) was added. • (vi) The 24-well plate was placed in the incubator, and the cells were cultured for 24 hours under conditions of 37° C. and 5% CO2.
By carrying out a GFP assay, the EGFP expression level in cells was measured to evaluate the effect of knocking down the green fluorescent protein gene (EGFP) by lipid nanoparticles. • (i) A 24-well plate was taken out from an incubator and washed with PBS. • (ii) A 1% octylglucoside solution to which a protease inhibitor was added was added in order to disrupt cells. Stirring with a pipette lysed the cells. • (iii) The cell lysate was transferred to an Eppendorf tube and subjected to a centrifuge. • (iv) 150 μL of the supernatant was collected and added to a plate for fluorescence measurement. • (v) The fluorescence intensity was measured under conditions of an excitation wavelength of 485 nm and a fluorescence wavelength of 535 nm with a plate reader (manufactured by TECAN, Infinite M200). The fluorescence intensity was calculated with the fluorescence intensity of control cells to which no lipid nanoparticle was added set at 100.

[3] = siRNA / mRNA encapsulation rate of lipid nanoparticle (RiboGreen); assay type: physicochemical; conditions: siRNA encapsulation rate of lipid nanoparticle
Description: The siRNA encapsulation rate and the mRNA encapsulation rate of the lipid nanoparticle were obtained as follows. First, a surfactant (Sigma-Aldrich, Triton (registered trademark), X-100 (reducing type)) was added to the lipid nanoparticle-containing solution to disrupt the lipid nanoparticle to release the encapsulated siRNA or mRNA. The amounts of the lipid nanoparticle-containing solution and the surfactant were adjusted such that the siRNA or the mRNA was 2 pmol and the surfactant was 1% in 40 μL of the solution after adding the surfactant to the lipid nanoparticle-containing solution. Next, the RiboGreen reagent (reagent that reacts with siRNA to emit fluorescence, manufactured by Thermo Fisher Scientific, Quant-iT (registered trademark) RiboGreen (registered trademark) RNA Assay Kit) was added to the solution, and the fluorescence intensity was measured under conditions of an excitation wavelength of 480 nm and a fluorescence wavelength of 520 nm with a fluorescence intensity meter (manufactured by TECAN, Infinite M200). Specifically, 75 μL of the RiboGreen reagent diluted to 1/2000 was added to a diluted solution obtained by adding 65 μL of citrate buffer to 10 μL of the solution, and the fluorescence intensity was measured. This makes it possible to relatively measure the total amount of the siRNA or the total amount of the mRNA present in the solution.
Subsequently, the RiboGreen reagent was added to the lipid nanoparticle-containing solution without adding a surfactant, and the fluorescence intensity was measured in the same manner with a fluorescence intensity meter. By not adding a surfactant, it is possible to relatively measure the amount of the siRNA or the mRNA free in the solution without being encapsulated in the lipid nanoparticle.
Then, the fluorescence intensity obtained from the solution to which the surfactant was added obtained as described above was fluorescence intensity a, and the fluorescence intensity thus obtained from the solution to which no surfactant was added obtained as described above was fluorescence intensity b, and according to the expression (a−b)/a×100, the siRNA encapsulation rate (%) or the mRNA encapsulation rate (%) of the lipid nanoparticle was obtained. Each of fluorescence intensity a and fluorescence intensity b is a value obtained by subtracting a blank from the arithmetic average value of the results of three measurements for each solution. The blank was measured by carrying out the same operation on a well containing water containing no cell or lipid nanoparticle.

[4] = system: HT1080-EGFP (human/fibrosarcoma) cells; test: Evaluation of toxicity: LDH assay; assay type: cell-based; conditions: lipid nanoparticle containing siRNA; absorbance relative to control cells without lipid nanoparticle set at 1.00
Description: as §1
The introduction of lipid nanoparticles into cells for an LDH assay described later was carried out as follows. • (i) A 96-well plate was taken out from an incubator. • (ii) The liquid medium supernatant in the 96-well plate was aspirated and washed with phosphate buffered saline (PBS). • (iii) 160 μL of a liquid medium containing 10% FBS (FBS+/P/S+) was added to the washed 96-well plate. In addition, 40 μL of an LNP solution having an adjusted concentration was added. • (iv) The 96-well plate was placed in the incubator, and the cells were cultured for 24 hours under conditions of 37° C. and 5% CO2.
For Examples 1 to 9, a CCK-8 assay or an LDH assay was carried out to measure the metabolic activity of viable cells and relatively quantify the number of surviving cells to evaluate the toxicity of lipid nanoparticles.
An LDH assay was carried out by using a viable cell counting kit (DOJINDO LABORATORIES, Cytotoxicity LDH Assay Kit-WST) as follows. • (i) 20 μL of a lysis buffer was added to each of positive control wells and incubated at 37° C. for 30 minutes in an incubator. • (ii) 100 μL of the supernatant was taken from each well and transferred to a 96-well plate for measurement. • (iii) 100 μL of the reagent mixture attached to the kit was added to all the wells, and a color reaction was carried out for 30 minutes at room temperature with exclusion of light. • (iv) 50 μL of the stop solution reagent attached to the kit was added to all the wells. • (v) The 96-well plate was measured under conditions of a measurement wavelength of 490 nm and a target wavelength of 630 nm with a plate reader (manufactured by TECAN, Infinite M200) to calculate the absorbance. The absorbance was calculated with the absorbance of control cells to which no lipid nanoparticle was added set at 1.00. When the obtained value was 0.50 or less, a rating of double-circle (excellent) was given, when the obtained value was more than 0.50 and 1.0 or less, a rating of circle (good) was given, when the obtained value was more than 1.0 and less than 6.0, a rating of triangle (fair) was given, and when the obtained value was 6.0 or more, a rating of X-mark (poor) was given.

Compound	Zeta potential (mV) [1]	Encapsulation rate (%) [3]	Particle size (nm) [1]	PDI [1]	GFP Assay [2]	LDH Assay [4]
CCCCCCCC/C=C\CCCCCCCCC(CCCCCCC/C=C\CCCCCCCC)OC(=O)C(N)C(C)O (stereo not drawn) [Comparative Example 1, (9Z,27Z)-hexatriaconta-9,27-dien-18-yl 2-amino-3-hydroxybutanoate, reference compound]	27.8 mV	–	–	–	–	–
CCCCCCCC/C=C\CCCCCCCCCCCCC(CCCCCCCCCCC/C=C\CCCCCCCC)OC(=O)[C@@H](N)CCCCN (stereo partly drawn) [Comparative Example 7, (9Z,35Z)-tetratetraconta-9,35-dien-22-yl lysinate, reference compound]	21.0 mV	99%	149.8 nm	0.021	–	–
CCCCCCCC/C=C\CCCCCCCCC(CCCCCCC/C=C\CCCCCCCC)OC(=O)C(Cc1c[nH]cn1)NC(=O)C(N)CCCNC(=N)N (stereo not drawn) [Example 3, (9Z,27Z)-hexatriaconta-9,27-dien-18-ylarginylhistidinate]	–	–	–	–	22	◯ (when the obtained value was more than 0.50 and 1.0 or less, a rating of circle (good) was given)
CCCCC/C=C\C/C=C\CCCCCCCCC(CCCCCCC/C=C\C/C=C\CCCCC)OC(=O)C(NC(=O)C(N)CCCNC(=N)N)C(C)O (stereo not drawn) [Example 10, (6Z,9Z,27Z,30Z)-hexatriaconta-6,9,27,30-tetraen-18-yl 2-(2-amino-5-guanidinopentanamido)-3-hydroxybutanoate]	36.8 mV	98%	103.6 nm	0.095	11	–

Further lines, with some results ahead:

Zeta potential (mV) [1]	Encapsulation rate (%) [3]	Particle size (nm) [1]	PDI [1]	Compound	GFP Assay [2]	LDH Assay [4]
26.5 mV	99%	147.5 nm	0.063	CCCCCCCC/C=C\CCCCCCCCC(CCCCCCC/C=C\CCCCCCCC)OC(=O)[C@@H](N)CCCCN (stereo partly drawn) [Comparative Example 4, (9Z,27Z)-hexatriaconta-9,27-dien-18-yl lysinate, reference compound]	86	–
50.8 mV	100%	324.5 nm	0.731	CCCCC/C=C\CCCC(CC/C=C\CCCCC)OC(=O)C(N)CCCCN (stereo not drawn) [Comparative Example 5, (6Z,14Z)-icosa-6,14-dien-10-yl lysinate, reference compound]	–	–
27.5 mV	99%	212.1 nm	0.022	CCCCCC/C=C\CCCCCCCCC(CCCCCCC/C=C\CCCCCC)OC(=O)C(N)CCCCN (stereo not drawn) [Comparative Example 6, (7Z,25Z)-dotriaconta-7,25-dien-16-yl lysinate, reference compound]	–	–
29.7 mV	100%	233.1 nm	0.187	CC/C=C\CCC(CCCCCCC/C=C\CCCCCC)OC(=O)[C@@H](N)CCCCN (stereo partly drawn) [Comparative Example 8, (3Z,15Z)-docosa-3,15-dien-7-yl lysinate, reference compound]	–	–
32.7 mV	100%	759.4 nm	0.508	CC/C=C\CCC(CCCCCCCCCCC/C=C\CCCCCCCC)OC(=O)[C@@H](N)CCCCN (stereo partly drawn) [Comparative Example 9, (3Z,19Z)-octacosa-3,19-dien-7-yl lysinate, reference compound]	–	–
